{"source": "patent US10294202B2", "about": "“Pyrrolidinones as herbicides” (FMC Corporation, priority 2013, dated 2019)", "key": {"[1]": {"system": "barnyardgrass", "assay": "Test A pre-/postemergence herbicide test", "format": "in vivo, Echinochloa crus-galli", "how_it_was_run": "(§1)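 Directed soil spray to seeded pots (preemergence) or spray onto one- to two-leaf seedlings 2–10 cm tall (postemergence); loam/sand substrate throughout. Evaluated visually after about 10 days against untreated plants, 0 = no effect, 100 = complete control.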"}, "[2]": {"system": "kochia", "assay": "Test A pre-/postemergence herbicide test", "format": "in vivo, Kochia scoparia", "settings": "for Plant response rating, Kochia: 0 to 100 scale", "how_it_was_run": "as §1"}, "[3]": {"system": "ragweed", "assay": "Test A pre-/postemergence herbicide test", "format": "in vivo, Ambrosia elatior", "settings": "for Plant response rating, Ragweed: 0 to 100 scale", "how_it_was_run": "as §1"}, "[4]": {"system": "ryegrass, Italian", "assay": "Test A pre-/postemergence herbicide test", "format": "in vivo, Lolium multiflorum", "settings": "for Plant response rating, Ryegrass, Italian: 0 to 100 scale", "how_it_was_run": "as §1"}, "[5]": {"system": "giant foxtail", "assay": "Test A pre-/postemergence herbicide test", "format": "in vivo, Setaria faberii", "settings": "for Plant response rating, Foxtail, Giant: 0 to 100 scale", "how_it_was_run": "as §1"}, "[6]": {"system": "pigweed", "assay": "Test A pre-/postemergence herbicide test", "format": "in vivo, Amaranthus retroflexus", "settings": "for Plant response rating, Pigweed: 0 to 100 scale", "how_it_was_run": "as §1"}, "[7]": {"system": "wheat", "assay": "Test A pre-/postemergence herbicide test", "format": "in vivo, Triticum aestivum", "settings": "Postemergence", "how_it_was_run": "as §1"}, "[8]": {"system": "corn", "assay": "Test A pre-/postemergence herbicide test", "format": "in vivo, Zea mays", "settings": "Postemergence", "how_it_was_run": "as §1"}, "[9]": {"system": "blackgrass", "assay": "Test A postemergence herbicide test", "format": "in vivo, Alopecurus myosuroides", "how_it_was_run": "(§2)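 Young potted plants in a loam–sand mix, one- to two-leaf stage and 2–10 cm tall, receive the test chemical postemergence and stay in a greenhouse for approximately 10 days. Injury is then judged by eye against untreated plants, scored 0 (none) to 100 (complete control).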"}, "[10]": {"system": "galium", "assay": "Test A postemergence herbicide test", "format": "in vivo, Galium aparine", "how_it_was_run": "as §2"}, "[11]": {"system": "rice", "assay": "Test B flooded paddy test", "format": "in vivo, Oryza sativa", "settings": "500 g ai/ha, Flood; scale of 0 to 100 where 0 is no effect and 100 is complete control", "how_it_was_run": "(§3)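 Treatment was made at the 2-leaf stage by dosing the standing floodwater, kept 3 cm above soil level for the whole test. Greenhouse exposure lasted 13 to 15 days. Response is a visual percent rating relative to controls, where a dash indicates no test result.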"}, "[12]": {"system": "sedge, umbrella", "assay": "Test B flooded paddy test", "format": "in vivo, Cyperus difformis", "settings": "500 g ai/ha, Flood; scale of 0 to 100 where 0 is no effect and 100 is complete control", "how_it_was_run": "as §3"}, "[13]": {"system": "ducksalad", "assay": "Test B flooded paddy test", "format": "in vivo, Heteranthera limosa", "settings": "500 g ai/ha, Flood; scale of 0 to 100 where 0 is no effect and 100 is complete control", "how_it_was_run": "as §3"}, "[14]": {"system": "barnyardgrass", "assay": "Test B flooded paddy test", "format": "in vivo, Echinochloa crus-galli", "settings": "500 g ai/ha, Flood; scale of 0 to 100 where 0 is no effect and 100 is complete control", "how_it_was_run": "as §3"}, "[15]": {"settings": "125 g ai/ha, visual rating, 0 no effect, 100 complete control, approximately 10 days, preemergence"}, "[16]": {"settings": "Postemergence, 125 g ai/ha, 0 is no effect, 100 is complete control"}, "[17]": {"settings": "preemergence, 500 g ai/ha, 0 is no effect and 100 is complete control"}, "[18]": {"settings": "125 g ai/ha, 0 to 100 scale, 0 is no effect, 100 is complete control"}}}
{"smiles": "O=C1NCC(c2cccc(C(F)F)c2)C1C(=O)Nc1cccc(F)c1F", "note": "(racemic) [Compound 164]", "values": [{"measurement": "Plant response rating, Barnyardgrass", "setting": "[1]; 125 g ai/ha, visual rating, 0 to 100 scale, 0 no effect, 100 complete control, approximately 10 days, preemergence", "result": 90}, {"measurement": "Plant response rating, Barnyardgrass", "setting": "[1]; Postemergence, 125 g ai/ha, 0 to 100 scale, 0 is no effect, 100 is complete control", "result": 90}, {"measurement": "Barnyardgrass plant response rating (0 to 100 scale, 0 is no effect, 100 is complete control)", "setting": "[1]; Postemergence, 500 g ai/ha", "result": 90}, {"measurement": "Plant response rating, Barnyardgrass", "setting": "[1]; preemergence, 500 g ai/ha, 0 to 100 scale (0 no effect, 100 complete control)", "result": 90}, {"measurement": "Plant response rating, Kochia", "setting": "[2]; [15]", "result": 60}, {"measurement": "Plant response rating, Kochia", "setting": "[2]; [16]", "result": 60}, {"measurement": "Kochia plant response rating (0 to 100 scale, 0 is no effect, 100 is complete control)", "setting": "[2]; Postemergence, 500 g ai/ha", "result": 70}, {"measurement": "Plant response rating, Kochia", "setting": "[2]; [17]", "result": 80}, {"measurement": "Plant response rating, Ragweed", "setting": "[3]; [15]", "result": 20}, {"measurement": "Plant response rating, Ragweed", "setting": "[3]; [16]", "result": 20}, {"measurement": "Ragweed plant response rating (0 to 100 scale, 0 is no effect, 100 is complete control)", "setting": "[3]; Postemergence, 500 g ai/ha", "result": 50}, {"measurement": "Plant response rating, Ragweed", "setting": "[3]; [17]", "result": 60}, {"measurement": "Plant response rating, Ryegrass, Italian", "setting": "[4]; [15]", "result": 20}, {"measurement": "Plant response rating, Ryegrass, Italian", "setting": "[4]; [16]", "result": 40}, {"measurement": "Ryegrass, Italian plant response rating (0 to 100 scale, 0 is no effect, 100 is complete control)", "setting": "[4]; Postemergence, 500 g ai/ha", "result": 50}, {"measurement": "Plant response rating, Ryegrass, Italian", "setting": "[4]; [17]", "result": 50}, {"measurement": "Plant response rating, Foxtail, Giant", "setting": "[5]; [15]", "result": 90}, {"measurement": "Plant response rating, Foxtail, Giant", "setting": "[5]; [16]", "result": 70}, {"measurement": "Foxtail, Giant plant response rating (0 to 100 scale, 0 is no effect, 100 is complete control)", "setting": "[5]; Postemergence, 500 g ai/ha", "result": 90}, {"measurement": "Plant response rating, Foxtail, Giant", "setting": "[5]; preemergence, 500 g ai/ha", "result": 90}, {"measurement": "Plant response rating, Pigweed", "setting": "[6]; [15]", "result": 50}, {"measurement": "Plant response rating, Pigweed", "setting": "[6]; [16]", "result": 20}, {"measurement": "Pigweed plant response rating (0 to 100 scale, 0 is no effect, 100 is complete control)", "setting": "[6]; Postemergence, 500 g ai/ha", "result": 60}, {"measurement": "Plant response rating, Pigweed", "setting": "[6]; [17]", "result": 70}, {"measurement": "Plant response rating, Wheat", "setting": "[7]; [18]", "result": 40}, {"measurement": "Wheat plant response rating (0 to 100 scale, 0 is no effect, 100 is complete control)", "setting": "[7]; 500 g ai/ha", "result": 80}, {"measurement": "Plant response rating, Corn", "setting": "[8]; [18]", "result": 50}, {"measurement": "Corn plant response rating (0 to 100 scale, 0 is no effect, 100 is complete control)", "setting": "[8]; 500 g ai/ha", "result": 80}, {"measurement": "Plant response rating, Blackgrass", "setting": "[9]; [18]", "result": 50}, {"measurement": "Blackgrass plant response rating (0 to 100 scale, 0 is no effect, 100 is complete control)", "setting": "[9]; 500 g ai/ha", "result": 70}, {"measurement": "Plant response rating, Galium", "setting": "[10]; [18]", "result": 50}, {"measurement": "Galium plant response rating (0 to 100 scale, 0 is no effect, 100 is complete control)", "setting": "[10]; 500 g ai/ha", "result": 60}, {"measurement": "Plant response rating, Rice", "setting": "[11]", "result": 20}, {"measurement": "Plant response rating, Sedge, Umbrella", "setting": "[12]", "result": 0}, {"measurement": "Plant response rating, Ducksalad", "setting": "[13]", "result": 100}, {"measurement": "Plant response rating, Barnyardgrass", "setting": "[14]", "result": 80}]}
